Experimental data taken from ChEMBL document CHEMBL3227965, “Synthesis of 5-selenium-substituted uracil derivatives. Inhibition of thymidylate synthetase by 5-hydroseleno-2'-deoxyuridylate” (J Med Chem, 1979).
Calls of active or inactive are those of the source. The calls are words filed in the database; no cut-off is given here.

Assays:
Thymidylate synthase [1] = molecular target: T1, Thymidylate synthase (Lactobacillus casei, UniProt P00469); experiment: Inhibition of dichloromethotrexate-resistant Lactobacillus casei thymidylate synthase by Dixon plot method; design: species or system Lacticaseibacillus casei
T1 sequence (P00469 whole entry): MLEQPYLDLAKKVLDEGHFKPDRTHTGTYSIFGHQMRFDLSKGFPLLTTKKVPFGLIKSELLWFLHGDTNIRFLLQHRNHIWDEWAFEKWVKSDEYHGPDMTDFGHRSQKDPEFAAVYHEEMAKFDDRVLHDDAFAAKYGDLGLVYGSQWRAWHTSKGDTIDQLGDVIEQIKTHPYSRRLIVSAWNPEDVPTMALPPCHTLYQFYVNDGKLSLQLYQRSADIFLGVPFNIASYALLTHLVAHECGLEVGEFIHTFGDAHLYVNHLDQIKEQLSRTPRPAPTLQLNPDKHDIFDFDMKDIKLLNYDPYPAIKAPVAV

L1210 [2] = experiment: Cytotoxicity against mouse L1210 cells assessed as growth inhibition at 10^-4 M; format: functional, cell-based
Thymidylate synthase [3] = molecular target: T1, Thymidylate synthase; experiment: Reversible competitive inhibition of dichloromethotrexate-resistant Lactobacillus casei thymidylate synthase using […] as substrate by Dixon plot method; design: species or system Lacticaseibacillus casei; conditions: read-out: Ki(app)
L1210 [4] = experiment: Cytotoxicity against mouse L1210 cells assessed as growth inhibition at 5 x 10^-6 M; format: functional, cell-based

With `O=c1[nH]c(=O)n([C@H]2C[C@H](O)[C@@H](COP(=O)(O)O)O2)cc1S` the Ki (Thymidylate synthase [1]) was 0.048 µM.
`O=c1[nH]c(=O)n([C@H]2C[C@H](O)[C@@H](CO)O2)cc1[Se][Se]c1cn([C@H]2C[C@H](O)[C@@H](CO)O2)c(=O)[nH]c1=O` was tested, and the Activity (L1210 [2]) was “inactive”.
Compound `O=c1[nH]c(=O)n([C@H]2C[C@H](O)[C@@H](COP(=O)(O)O)O2)cc1[SeH]` has a Ki (Thymidylate synthase [3]) of 0.06 µM.
For `O=c1[nH]c(=O)n([C@H]2C[C@H](O)[C@@H](CO)O2)cc1S`, the Activity (L1210 [4]) was “Active”.
